From patent US20230295164A1, “COMPOUNDS HAVING ANTIBACTERIAL ACTIVITY” (The Trustees of Princeton University, priority 2020, published 2023) come the findings set out here.

In brackets after ≈: the same amount, converted by molar mass. Where only a bound is given, the exact number is not on record here.

Common to all, as to assay: MIC testing, broth microdilution in CAMHB
What all share (assay type): cell-based

In assay [1] the test system is Salmonella typhimurium, CMCC 50115. The note with it: 37° C., 18-20 hr, lowest concentration that completely inhibits visible growth; for MIC: Salmonella enterica, read-out: Compound MICs, Salmonella typhimurium, CMCC 50115. The method, then: (§1) Compounds 1-71 were subsequently tested to determine MICs of the compounds relative to the following five species/strains of bacteria: Staphylococcus aureus, NRS384; Enterococcus faecalis, ATCC 51575; Salmonella typhimurium, CMCC 50115; Escherichia coli, ATCC BAA-198; and Acinetobacter baumannii, ATCC 17978. MIC testing of compounds was conducted according to the following protocol.
(§2) For each strain to be tested, made fresh streaks onto CAMHA from −80° C. glycerol stocks.
(§3) • CAMHB: Dissolved 22 g of the powder per 1 L of purified water. Mixed well. Autoclaved at 121° C. for 10 minutes. Stored at room temperature (RT) for no more than 1 week. • Saline: Dissolved 9 g of the powder per 1 L of purified water. Mixed well. Autoclaved at 121° C. for 30 minutes. Stored at room temperature (RT) for no more than 1 week.
(§4) Prepared the stock solutions of the tested compounds.
(§5) For compounds: • a) Dispensed 20 ul compound to the wells in column 1, and 20 ul DMSO to the wells in column 2 to 12; • b) Diluted the compounds by transferring 10 ul compounds from column 1 to 20 ul DMSO in column 2; mix with pipette. • c) Repeated until column 11 to get 3×serial dilutions. Column 12 was the DMSO control.
(§6) A multichannel pipette was used to deliver 1 μl of the diluted compound into each well of the corresponding daughter plate.
(§7) Scraped 4-8 single colonies from an agar plate into 5 ml saline in a 14 ml Falcon conical tube. Vortexed the tube to suspend the bacteria. Adjusted the turbidity to ˜0.2 (corresponding to 0.5 McFarland) with an Ultrospec 10 Cell density meter.
(§8) The strain suspension was diluted 200-fold in CAMHB medium and dispense into a sterile reservoir. A multichannel pipette was then used to deliver 99 μl of the diluted inocula into each well of the corresponding daughter plate.
(§9) Incubate the daughter plates at 37° C., 85% humidity for 18-20 hr.
(§10) A magnifying mirror device was used for ease of scoring the presence or absence of growth in the wells. 96-well micro-plates were photographed.

The subject of assay [2] is Enterococcus faecalis, ATCC 51575. Particulars: 18-20 hr, lowest concentration that completely inhibits visible growth; for Compound MICs, Enterococcus faecalis, ATCC 51575: 37° C.; for MIC: Enterococcus faecalis, ATCC51575, 37° C., read-out: Compound MICs, Enterococcus faecalis, ATCC 51575. The method, then:
as §1, §2, §3, §4, §5, §6, §7, §8, §9, §10

In assay [3] the test system is Acinetobacter baumannii, ATCC 17978. The note with it: 18-20 hr, lowest concentration that completely inhibits visible growth; for Compound MICs, Acinetobacter baumannii, ATCC 17978: 37° C.; for MIC: Acinetobacter baumannii, ATCC17978, 37° C., read-out: Compound MICs, Acinetobacter baumannii, ATCC 17978. On the procedure:
as §1, §2, §3, §4, §5, §6, §7, §8, §9, §10

The test system of assay [4] is Escherichia coli, ATCC BAA-198. Particulars: 18-20 hr, lowest concentration that completely inhibits visible growth; for Compound MICs, Escherichia coli, ATCC BAA-198: 37° C.; for MIC: Escherichia coli, ATCCBAA198, 37° C., read-out: Compound MICs, Escherichia coli, ATCC BAA-198. On the procedure:
as §1, §2, §3, §4, §5, §6, §7, §8, §9, §10

The subject of assay [5] is Staphylococcus aureus, NRS384. Particulars: 18-20 hr, lowest concentration that completely inhibits visible growth; for Compound MICs, Staphylococcus aureus, NRS384: 37° C.; for MIC: Staphylococcus aureus, NRS384, 37° C., read-out: Compound MICs, Staphylococcus aureus, NRS384. On the procedure: as §1, §2, §3, §4, §5, §6, §7, §8, §9, §10

`Nc1nc(N)c2c(ccc3c2ccn3Cc2ccc(-c3ccccn3)cc2)n1` [Compound 61]: the “Compound MICs, Salmonella typhimurium, CMCC 50115” value (“Compound MICs … CMCC 50115” below) in assay [1] amounted to 0.26 µg/mL. Also, the “Compound MICs, Enterococcus faecalis, ATCC 51575” value (“Compound MICs … ATCC 51575” below) in assay [2] was determined as 0.03 µg/mL. The “Compound MICs, Acinetobacter baumannii, ATCC 17978” value (shortened to “Compound MICs … ATCC 17978”) in assay [3] came to 7.11 µg/mL. Also, the “Compound MICs, Escherichia coli, ATCC BAA-198” value (shortened to “Compound MICs, Escherichia coli”) in assay [4] was 7.11 µg/mL. Further, in assay [5], the “Compound MICs, Staphylococcus aureus, NRS384” value (from here on “Compound MICs … NRS384”) was determined as 0.09 µg/mL.

Regarding `C=C(Cn1ccc2c3c(N)nc(N)nc3ccc21)C(=O)OC` [Compound 62], the “Compound MICs … CMCC 50115” value in assay [1] turned out to be 0.26 µg/mL. Moreover, in assay [2], the “Compound MICs … ATCC 51575” value is 0.003 µg/mL. For the same compound, in assay [3], the “Compound MICs … ATCC 17978” value is 21.3 µg/mL. In assay [4], the “Compound MICs, Escherichia coli” value turned out to be 21.3 µg/mL. The “Compound MICs … NRS384” value in assay [5] turned out to be 0.79 µg/mL.

With `COc1ccnc(Cn2ccc3c4c(N)nc(N)nc4ccc32)c1` [Compound 63], the MIC is 0.26 µg/mL (≈ 0.812 µM) in assay [1]; 0.09 µg/mL (≈ 0.281 µM) in assay [2]; 21.3 µg/mL (≈ 66.5 µM) in assay [3]; 21.3 µg/mL (≈ 66.5 µM) in assay [4]; 0.26 µg/mL (≈ 0.812 µM) in assay [5].

As for `Nc1nc(N)c2ccc(NCc3ccc(F)cc3)cc2n1` [Compound 64], the “Compound MICs … CMCC 50115” value in assay [1] is 64 µg/mL. Besides, in assay [2], the “Compound MICs … ATCC 51575” value was found to be 21.3 µg/mL. Also, in assay [3], the “Compound MICs … ATCC 17978” value is more than 64 µg/mL. For the same compound, the “Compound MICs, Escherichia coli” value in assay [4] came to 64 µg/mL. Further, the “Compound MICs … NRS384” value in assay [5] is 7.11 µg/mL.

Consider `COc1ccc(Cn2ccc3c4c(N)nc(N)nc4ccc32)c(Cl)c1` [Compound 65], for which the “Compound MICs … CMCC 50115” value in assay [1] is 0.26 µg/mL. Moreover, the “Compound MICs … ATCC 51575” value in assay [2] was 0.01 µg/mL. Moreover, the “Compound MICs … ATCC 17978” value in assay [3] turned out to be 7.11 µg/mL. Also, the “Compound MICs, Escherichia coli” value in assay [4] came to 7.11 µg/mL. For the same compound, in assay [5], the “Compound MICs … NRS384” value is 0.09 µg/mL.

For the compound `COc1cc(Cn2ccc3c4c(N)nc(N)nc4ccc32)cc(OC)c1` [Compound 66], in assay [1], the “Compound MICs … CMCC 50115” value was found to be 0.26 µg/mL. Moreover, the “Compound MICs … ATCC 51575” value in assay [2] amounted to 0.01 µg/mL. Besides, the “Compound MICs … ATCC 17978” value in assay [3] was 7.11 µg/mL. Further, in assay [4], the “Compound MICs, Escherichia coli” value turned out to be 2.37 µg/mL. Further, in assay [5], the “Compound MICs … NRS384” value came to 0.09 µg/mL.

As to `COc1cccc(Cn2ccc3c4c(N)nc(N)nc4ccc32)n1` [Compound 67], in assay [1], the “Compound MICs … CMCC 50115” value was found to be 0.26 µg/mL. Further, the “Compound MICs … ATCC 51575” value in assay [2] turned out to be 0.01 µg/mL. In addition, in assay [3], the “Compound MICs … ATCC 17978” value came out at 0.26 µg/mL. Further, in assay [4], the “Compound MICs, Escherichia coli” value was found to be 2.37 µg/mL. For the same compound, in assay [5], the “Compound MICs … NRS384” value amounted to 0.09 µg/mL.

In the case of `Nc1nc(N)c2c(ccc3c2ccn3Cc2cccc(Cl)c2Cl)n1` [Compound 68], the “Compound MICs … CMCC 50115” value in assay [1] was 0.26 µg/mL. For the same compound, in assay [2], the “Compound MICs … ATCC 51575” value worked out at 0.01 µg/mL. Besides, the “Compound MICs … ATCC 17978” value in assay [3] was 2.37 µg/mL. In addition, in assay [4], the “Compound MICs, Escherichia coli” value turned out to be 2.37 µg/mL. Moreover, in assay [5], the “Compound MICs … NRS384” value came out at 0.03 µg/mL.

Consider `Nc1nc(N)c2c(ccc3c2ccn3Cc2ccc3c(c2)OCO3)n1` [Compound 69], for which, in assay [1], the “Compound MICs … CMCC 50115” value came to 0.26 µg/mL. The “Compound MICs … ATCC 51575” value in assay [2] was 0.03 µg/mL. The “Compound MICs … ATCC 17978” value in assay [3] came to 7.11 µg/mL. The “Compound MICs, Escherichia coli” value in assay [4] amounted to 2.37 µg/mL. For the same compound, the “Compound MICs … NRS384” value in assay [5] was determined as 0.09 µg/mL.

Take `COc1ccc(Br)cc1Cn1ccc2c3c(N)nc(N)nc3ccc21` [Compound 70]: the MIC is 0.26 µg/mL (≈ 0.653 µM) in assay [1]; not above 0.001 µg/mL in assay [2]; 2.37 µg/mL (≈ 5.95 µM) in assay [3]; 2.37 µg/mL (≈ 5.95 µM) in assay [4]; 0.01 µg/mL (≈ 0.0251 µM) in assay [5].

In the case of `COc1cc(Cn2ccc3c4c(N)nc(N)nc4ccc32)cc(OC)c1OC` [Compound 71], the MIC in assay [1] amounted to 0.79 µg/mL (≈ 2.08 µM); in assay [2] it was 0.01 µg/mL (≈ 0.0264 µM); in assay [3], 7.11 µg/mL (≈ 18.7 µM); in assay [4] it was 2.37 µg/mL (≈ 6.25 µM); in assay [5], 0.03 µg/mL (≈ 0.0791 µM).
